From US20100184596A1, “METHOD FOR THE CONTROL OF WEEDS IN TURF” (SYNGENTA CROP PROTECTION, INC., priority 2007, published 2010)

Tests used:
Format in all cases: in vivo
Dandelion = experiment: Selective post-emergence herbicidal action, field trial Hudson (Table B1.2); details: 28 days after application
Experimental: (§1) The selectivity of the compound of formula I in turf (removal of grassy and broadleaf weeds) has been tested in turfgrass varieties selected from Kentucky bluegrass, tall fescue and perennial ryegrass and in […] selected from clover (an aggressive perennial weed) and dandelion (a weed of perennial horticultural crops and gardens which may also be a problem in some annual crops, particularly where reduced tillage is practiced).
(§2) The trials were conducted in Champaign, Ill., U.S. (Table B1.1) and Hudson, N.Y., U.S. (Table B1.2) under field conditions. Turfgrasses were maintained at approximately a 2.5″ height, like a home lawn. Mixed turf and weed stands were present. The test compounds were applied with a CO2 pressurized backpack sprayer by spraying in the form of an aqueous suspension (prepared from a wettable powder) in a concentration of 210 to 280 g/ha. The plots were then mowed and irrigated as needed. After 22 and 28 days respectively, the test is visually evaluated (100%=total damage to plant; 0%=no damage to plant).

Tall fescue = experiment: as above; details: 28 days after application
Experimental: as §1, §2

St. Augustinegrass = experiment: Phytotoxicity via post emergence spray application (Table B2.1)
Experimental: (§3) The phytotoxicity of the compound of formula I to turfgrass species was tested. The compound was applied via post emergence spray to a range of warm and cool season turfgrass species at various rates and spray treatment treatment regimes. Percentage phytotoxicity assessments were taken at various timepoints.

[1] = tested on: Perennial ryegrass/fine fescue mix; experiment: Phytotoxicity via post emergence spray application (Table B2.4)
Experimental: as §3

[2] = tested on: St. Augustinegrass v. Floratam; experiment: Phytotoxicity in combination with safeners, post emergence spray (Table B4.2); details: no safener, 100 g ai/ha
Experimental: (§4) The phytotoxicity to turfgrass of the compound of formula I in combination with various safeners was tested. The combinations were applied by post emergence spray application. Percentage phytotoxicity assessments were taken at various timepoints. The safeners tested in these trials were cloquintocet-mexyl, cyprosulfamide, a compound of formula 2.3, and isoxadifen-ethyl.

[3] = tested on: Perennial ryegrass v. blend of Bright Star, Citation Fore and Quick Trans; experiment: Phytotoxicity of granule formulations with safeners (Table B4.5); details: 8 DAT
Experimental: as §4
Tables B4.4 and B4.5 present the results of trials using safeners applied in combination with granule formulations of the compound of formula I.

[4] = tested on: Taraxacum officinale (dandelion); experiment: Weed control via post emergence spray, in perennial ryegrass/fine fescue mix (Table B5.5)
Experimental: (§5) The weed control efficacy of the compound of formula I was tested. The compound was applied via post emergence spray to a range of weeds, at various rates and spray treatment treatment regimes. Percentage weed control assessments were taken at various timepoints.

turfgrass = experiment: Example B2, conclusion in words; details: spray
Experimental: as §3

turfgrass weeds = experiment: Example B5, conclusion in words; details: post emergence spray
Experimental: as §5

[5] = tested on: St. Augustinegrass v. Delmar; experiment: Phytotoxicity via granule application (Table B3.1)

## COCCOCc1nc(C(F)(F)F)ccc1C(=O)C1=C(O)C2CCC(C2)C1=O (stereo not shown) [Formula I, 4-Hydroxy-3-[2-(2-methoxyethoxymethyl)-6-trifluoromethylpyridine-3-carbonyl]-bicyclo[3.2.1]oct-3-en-2-one]
Dandelion; 210 g/ha
  % damage: 82.5%
Dandelion; 280 g/ha
  % damage: 90%
Tall fescue; 210 g/ha
  % damage: 0%
Tall fescue; 280 g/ha
  % damage: 0%
St. Augustinegrass; 1 appl, 140 g ai/ha, 8 DAT
  % phytotoxicity: 36.67%
St. Augustinegrass; 1 appl, 140 g ai/ha, 14 DAT
  % phytotoxicity: 28.33%
St. Augustinegrass; 1 appl, 140 g ai/ha, 29 DAT
  % phytotoxicity: 0.00%
St. Augustinegrass; 1 appl, 140 g ai/ha, 35 DAT
  % phytotoxicity: 0.00%
St. Augustinegrass; 1 appl, 140 g ai/ha, 43 DAT
  % phytotoxicity: 0.00%
St. Augustinegrass; 1 appl, 140 g ai/ha, 51 DAT
  % phytotoxicity: 0.00%
St. Augustinegrass; 1 appl, 280 g ai/ha, 8 DAT
  % phytotoxicity: 40.00%
St. Augustinegrass; 1 appl, 280 g ai/ha, 14 DAT
  % phytotoxicity: 43.33%
St. Augustinegrass; 1 appl, 280 g ai/ha, 29 DAT
  % phytotoxicity: 0.00%
St. Augustinegrass; 1 appl, 280 g ai/ha, 35 DAT
  % phytotoxicity: 0.00%
St. Augustinegrass; 1 appl, 280 g ai/ha, 43 DAT
  % phytotoxicity: 0.00%
St. Augustinegrass; 1 appl, 280 g ai/ha, 51 DAT
  % phytotoxicity: 0.00%
St. Augustinegrass; 2 appl, 140 g ai/ha, 8 DAT
  % phytotoxicity: 43.33%
St. Augustinegrass; 2 appl, 140 g ai/ha, 14 DAT
  % phytotoxicity: 40.00%
St. Augustinegrass; 2 appl, 140 g ai/ha, 29 DAT
  % phytotoxicity: 0.00%
St. Augustinegrass; 2 appl, 140 g ai/ha, 35 DAT
  % phytotoxicity: 28.33%
St. Augustinegrass; 2 appl, 140 g ai/ha, 43 DAT
  % phytotoxicity: 8.33%
St. Augustinegrass; 2 appl, 140 g ai/ha, 51 DAT
  % phytotoxicity: 1.67%
St. Augustinegrass; 2 appl, 280 g ai/ha, 8 DAT
  % phytotoxicity: 41.67%
St. Augustinegrass; 2 appl, 280 g ai/ha, 14 DAT
  % phytotoxicity: 51.67%
St. Augustinegrass; 2 appl, 280 g ai/ha, 29 DAT
  % phytotoxicity: 0.00%
St. Augustinegrass; 2 appl, 280 g ai/ha, 35 DAT
  % phytotoxicity: 30.00%
St. Augustinegrass; 2 appl, 280 g ai/ha, 43 DAT
  % phytotoxicity: 11.67%
St. Augustinegrass; 2 appl, 280 g ai/ha, 51 DAT
  % phytotoxicity: 5.00%
[1]; 1 appl, 140 g ai/ha, 6 DAT
  % phytotoxicity: 4.00%
[1]; 1 appl, 140 g ai/ha, 14 DAT
  % phytotoxicity: 18.75%
[1]; 1 appl, 140 g ai/ha, 21 DAT
  % phytotoxicity: 6.75%
[1]; 1 appl, 140 g ai/ha, 28 DAT
  % phytotoxicity: 2.50%
[1]; 1 appl, 140 g ai/ha, 34 DAT
  % phytotoxicity: 0.50%
[1]; 1 appl, 140 g ai/ha, 39 DAT
  % phytotoxicity: 0.00%
[1]; 1 appl, 140 g ai/ha, 49 DAT
  % phytotoxicity: 3.75%
[1]; 1 appl, 280 g ai/ha, 6 DAT
  % phytotoxicity: 4.50%
[1]; 1 appl, 280 g ai/ha, 14 DAT
  % phytotoxicity: 25.00%
[1]; 1 appl, 280 g ai/ha, 21 DAT
  % phytotoxicity: 6.25%
[1]; 1 appl, 280 g ai/ha, 28 DAT
  % phytotoxicity: 1.75%
[1]; 1 appl, 280 g ai/ha, 34 DAT
  % phytotoxicity: 1.25%
[1]; 1 appl, 280 g ai/ha, 39 DAT
  % phytotoxicity: 0.00%
[1]; 1 appl, 280 g ai/ha, 49 DAT
  % phytotoxicity: 0.00%
[1]; 2 appl, 140 g ai/ha, 6 DAT
  % phytotoxicity: 3.00%
[1]; 2 appl, 140 g ai/ha, 14 DAT
  % phytotoxicity: 20.00%
[1]; 2 appl, 140 g ai/ha, 21 DAT
  % phytotoxicity: 6.75%
[1]; 2 appl, 140 g ai/ha, 28 DAT
  % phytotoxicity: 2.75%
[1]; 2 appl, 140 g ai/ha, 34 DAT
  % phytotoxicity: 10.50%
[1]; 2 appl, 140 g ai/ha, 39 DAT
  % phytotoxicity: 8.75%
[1]; 2 appl, 140 g ai/ha, 49 DAT
  % phytotoxicity: 4.25%
[1]; 2 appl, 280 g ai/ha, 6 DAT
  % phytotoxicity: 3.50%
[1]; 2 appl, 280 g ai/ha, 14 DAT
  % phytotoxicity: 28.75%
[1]; 2 appl, 280 g ai/ha, 21 DAT
  % phytotoxicity: 11.00%
[1]; 2 appl, 280 g ai/ha, 28 DAT
  % phytotoxicity: 17.50%
[1]; 2 appl, 280 g ai/ha, 34 DAT
  % phytotoxicity: 22.50%
[1]; 2 appl, 280 g ai/ha, 39 DAT
  % phytotoxicity: 23.75%
[1]; 2 appl, 280 g ai/ha, 49 DAT
  % phytotoxicity: 10.00%
[2]; 9 DAT
  % phytotoxicity: 46.70%
[2]; 13 DAT
  % phytotoxicity: 50.00%
[2]; 19 DAT
  % phytotoxicity: 11.70%
[2]; 25 DAT
  % phytotoxicity: 5.00%
[3]; DG Lite granule, no safener, 520 g ai/ha
  % phytotoxicity: 18.8%
[3]; DG Lite granule, safener Cyprosulfamide (0.07%), 520 g ai/ha
  % phytotoxicity: 21.3%
[3]; DG Lite granule, safener Formula 2.3 (0.07%), 520 g ai/ha
  % phytotoxicity: 20.0%
[3]; DG Lite granule, safener Isoxadifen (0.07%), 520 g ai/ha
  % phytotoxicity: 21.3%
[3]; Spray, no safener, 260 g ai/ha
  % phytotoxicity: 31.3%
[4]; 1 appl, 140 g ai/ha, 14 DAT
  % control: 32.50%
[4]; 1 appl, 140 g ai/ha, 21 DAT
  % control: 87.50%
[4]; 1 appl, 280 g ai/ha, 14 DAT
  % control: 37.50%
[4]; 1 appl, 280 g ai/ha, 21 DAT
  % control: 90.00%
[4]; 2 appl, 140 g ai/ha, 14 DAT
  % control: 47.50%
[4]; 2 appl, 140 g ai/ha, 21 DAT
  % control: 87.50%
[4]; 2 appl, 280 g ai/ha, 14 DAT
  % control: 41.25%
[4]; 2 appl, 280 g ai/ha, 21 DAT
  % control: 90.00%
turfgrass; applied at low rates
  phytotoxicity to turfgrass, in words: levels of phytotoxicity to turfgrass are acceptable
turfgrass; cool season versus warm season species
  phytotoxicity by turfgrass type, in words: lower on cool season turfgrass species
Turfgrass weeds
  weed control, in words: effective at controlling a variety of turfgrass weeds, even when applied at low rates
[5]; Granule A (inert), 112 g ai/ha, 11 DAT
  % phytotoxicity: 1.30%
[5]; Granule A (inert), 112 g ai/ha, 15 DAT
  % phytotoxicity: 0.70%
[5]; Granule A (inert), 112 g ai/ha, 28 DAT
  % phytotoxicity: 0.00%
[5]; Granule A (inert), 280 g ai/ha, 20 DAT
  % phytotoxicity: 0.00%
[5]; Granule A (inert), 280 g ai/ha, 28 DAT
  % phytotoxicity: 0.00%
[5]; Granule B (fertiliser), 112 g ai/ha, 20 DAT
  % phytotoxicity: 1.30%
[5]; Granule B (fertiliser), 112 g ai/ha, 28 DAT
  % phytotoxicity: 0.00%
[5]; Granule B (fertiliser), 280 g ai/ha, 7 DAT
  % phytotoxicity: 36.70%
[5]; Granule B (fertiliser), 280 g ai/ha, 15 DAT
  % phytotoxicity: 11.70%
[5]; Granule B (fertiliser), 280 g ai/ha, 20 DAT
  % phytotoxicity: 5.00%
[5]; Granule B (fertiliser), 280 g ai/ha, 28 DAT
  % phytotoxicity: 1.70%
[5]; Spray, 112 g ai/ha, 7 DAT
  % phytotoxicity: 36.70%
[5]; Spray, 112 g ai/ha, 11 DAT
  % phytotoxicity: 20.00%
[5]; Spray, 112 g ai/ha, 15 DAT
  % phytotoxicity: 9.30%
[5]; Spray, 112 g ai/ha, 20 DAT
  % phytotoxicity: 4.00%
[5]; Spray, 112 g ai/ha, 28 DAT
  % phytotoxicity: 0.00%
[5]; Spray, 280 g ai/ha, 7 DAT
  % phytotoxicity: 60.00%
[5]; Spray, 280 g ai/ha, 11 DAT
  % phytotoxicity: 43.30%
[5]; Spray, 280 g ai/ha, 15 DAT
  % phytotoxicity: 20.00%
[5]; Spray, 280 g ai/ha, 20 DAT
  % phytotoxicity: 10.00%
[5]; Spray, 280 g ai/ha, 28 DAT
  % phytotoxicity: 3.30%
